# Experimental data as given in US11304974B2, “Nanosystems comprising silver and antibiotics and their use for the treatment of bacterial infections” (priority 2017, dated 2022).
# Experiments:
# [1] = tested on: E. coli W207 BLEE+; experiment: Agar diffusion antibiogram (Example 2); assay type: cell-based, Escherichia coli; details: concentration 50 μg/ml
# Procedure: (§1) From the stock cultures, which were maintained at −80±5° C., revitalization of the strains (TSB, TSA and blood agar cultures, incubation at 37° C., 24 h) and preparation of working cultures (maintenance at 5° C.±3° C.) was carried out.
# (§2) The study of microbial activity of the products was performed by the agar diffusion method (antibiograms). Preliminary experiments were performed to adjust the concentration of each strain to obtain a homogeneous field, and the appropriate culture medium (in this case, Mueller Hinton agar) was selected. Whenever possible, large Petri plates (diameter of 135 mm) were used, but when the halo was too large, several plates of 90 mm diameter were used to test all the products. […] Addition of 1-2 ml of the corresponding dilution to sterile Petri plates (depending on size) and then pouring Mueller Hinton agar, tempered to 45° C. Allowing the agar to solidify at room temperature and then practicing wells in which the products will be placed to be tested. • Preparing the test substances in the appropriate concentration (suspension of 1 mg/ml in sterile water and serial dilutions). Placing 50 μl of the chosen concentration in each well (a previous study was done to see which concentration provided the most appropriate halos in each strain). As a positive control Penicillin G (at the same concentration) was used. • Incubation of the plates at 3±1° C. for 24 hours. Then the inhibition halos observed in each well were measured and gathered in Table 4 below.
# [2] = tested on: E. coli H24 BLEE+; experiment: Agar diffusion antibiogram (Example 2); assay type: cell-based, Escherichia coli; details: concentration 50 μg/ml
# Procedure: as §1, §2
# [3] = tested on: E. coli C93 BLEE+; experiment: Agar diffusion antibiogram (Example 2); assay type: cell-based, Escherichia coli; details: concentration 50 μg/ml
# Procedure: as §1, §2
# [4] = tested on: E. coli AC8 BLEE+; experiment: Agar diffusion antibiogram (Example 2); assay type: cell-based, Escherichia coli; details: concentration 50 μg/ml
# Procedure: as §1, §2
# [5] = tested on: K. pneumoniae ATCC 700603; experiment: Agar diffusion antibiogram (Example 1); assay type: cell-based, Klebsiella pneumoniae; details: by order of Table 1 K. pneumoniae ATCC 700603; concentration 200 μg/ml
# Procedure: as §1
# (§3) The study of microbial activity of the products was performed by the agar diffusion method (antibiograms). Preliminary experiments were performed to adjust the concentration of each strain to obtain a homogeneous field, and select the appropriate culture medium (in this case, Mueller Hinton agar). Whenever possible, large Petri plates (135 mm diameter) were used, but when the halo was too large, several plates of 90 mm diameter were used to test all the products. […] Addition of 1-2 ml of the corresponding dilution to sterile Petri plates (depending on size) and then pouring Mueller Hinton agar, tempered to 45° C. Allowing the agar to solidify at room temperature and then practicing wells in which the products to be tested will be placed. • Preparing the test substances in the appropriate concentration (suspension of 1 mg/ml in sterile water and serial dilutions). Placing 50 μl of the chosen concentration in each well (a previous study was done to determine which concentration provided the most appropriate halos in each strain). […] Then the inhibition halos observed in each well were measured and gathered in Table 2 below.
# [6] = tested on: K. pneumoniae (BLEE+); experiment: Agar diffusion antibiogram (Example 1); assay type: cell-based, Klebsiella pneumoniae; details: by order of Table 1 K. pneumoniae BLEE+ clinical isolate; concentration 200 μg/ml
# Procedure: as §1, §3
# [7] = tested on: C. freundii H44 BLEE+; experiment: Agar diffusion antibiogram (Example 2); assay type: cell-based, Citrobacter freundii; details: concentration 50 μg/ml
# Procedure: as §1
# as §2, with “As a positive control Penicillin G (at the same concentration) was used. • Incubation of the plates at 3±1° C. for 24 hours.” left out
# [8] = tested on: Ps. aeruginosa PAO1; experiment: Agar diffusion antibiogram (Example 1); assay type: cell-based, Pseudomonas aeruginosa; details: by order of Table 1 Ps. aeruginosa PAO1; concentration 50 μg/ml
# Procedure: as §1
# (§4) The study of microbial activity of the products was performed by the agar diffusion method (antibiograms). Preliminary experiments were performed to adjust the concentration of each strain to obtain a homogeneous field, and select the appropriate culture medium (in this case, Mueller Hinton agar). Whenever possible, large Petri plates (135 mm diameter) were used, but when the halo was too large, several plates of 90 mm diameter were used to test all the products. […] Addition of 1-2 ml of the corresponding dilution to sterile Petri plates (depending on size) and then pouring Mueller Hinton agar, tempered to 45° C. Allowing the agar to solidify at room temperature and then practicing wells in which the products to be tested will be placed. • Preparing the test substances in the appropriate concentration (suspension of 1 mg/ml in sterile water and serial dilutions). Placing 50 μl of the chosen concentration in each well (a previous study was done to determine which concentration provided the most appropriate halos in each strain). As a positive control, Penicillin G (at the same concentration) was used. • Incubation of the plates at 37±1° C. for 24 hours. Then the inhibition halos observed in each well were measured and gathered in Table 2 below.
# [9] = tested on: Ps. aeruginosa MEXR; experiment: Agar diffusion antibiogram (Example 1); assay type: cell-based, Pseudomonas aeruginosa; details: by order of Table 1 Ps. aeruginosa MEXR; concentration 50 μg/ml
# Procedure: as §1, §4
# [10] = tested on: Ps. aeruginosa VIM2; experiment: Agar diffusion antibiogram (Example 1); assay type: cell-based, Pseudomonas aeruginosa; details: by order of Table 1 Ps. aeruginosa VIM2; concentration 50 μg/ml
# Procedure: as §1, §4
# [11] = tested on: Ps. aeruginosa OPRD; experiment: Agar diffusion antibiogram (Example 1); assay type: cell-based, Pseudomonas aeruginosa; details: by order of Table 1 Ps. aeruginosa OPRD; concentration 50 μg/ml
# Procedure: as §1, §4
# [12] = tested on: K. pneumoniae ATCC 700603; experiment: Agar diffusion antibiogram (Example 2); assay type: cell-based, Klebsiella pneumoniae; details: concentration 200 μg/ml
# Procedure: as §1
# as §2, with “As a positive control Penicillin G (at the same concentration) was used. • Incubation of the plates at 3±1° C. for 24 hours.” left out
# [13] = tested on: K. pneumoniae BLEE+; experiment: Agar diffusion antibiogram (Example 2); assay type: cell-based, Klebsiella pneumoniae; details: concentration 200 μg/ml
# Procedure: as §1
# as §2, with “As a positive control Penicillin G (at the same concentration) was used. • Incubation of the plates at 3±1° C. for 24 hours.” left out
# [14] = tested on: E. coli ATCC 8739; experiment: Agar diffusion antibiogram (Example 1); assay type: cell-based, Escherichia coli; details: concentration 50 μg/ml
# Procedure: as §1, §4
# [15] = tested on: E. coli W207 BLEE+; experiment: Agar diffusion antibiogram (Example 1); assay type: cell-based, Escherichia coli; details: by order of Table 1 E. coli W207 BLEE+; concentration 50 μg/ml
# Procedure: as §1, §4
# [16] = tested on: E. coli not BLEE; experiment: Agar diffusion antibiogram (Example 1); assay type: cell-based, Escherichia coli; details: concentration 50 μg/ml
# Procedure: as §1, §4
# [17] = tested on: E. coli H24 BLEE+; experiment: Agar diffusion antibiogram (Example 1); assay type: cell-based, Escherichia coli; details: by order of Table 1 E. coli H24 BLEE+; concentration 50 μg/ml
# Procedure: as §1, §4
# [18] = tested on: E. coli C93 BLEE+; experiment: Agar diffusion antibiogram (Example 1); assay type: cell-based, Escherichia coli; details: by order of Table 1 E. coli C93 BLEE+; concentration 50 μg/ml
# Procedure: as §1, §4
# [19] = tested on: C. freundii H44 BLEE+; experiment: Agar diffusion antibiogram (Example 1); assay type: cell-based, Citrobacter freundii; details: by order of Table 1 C. freundii H44 BLEE+; concentration 50 μg/ml
# Procedure: as §1, §3
# [20] = tested on: Ps. aeruginosa PAO1; experiment: Agar diffusion antibiogram (Example 2); assay type: cell-based, Pseudomonas aeruginosa; details: concentration 50 μg/ml
# Procedure: as §1, §2
# [21] = tested on: Ps. aeruginosa MEXR; experiment: Agar diffusion antibiogram (Example 2); assay type: cell-based, Pseudomonas aeruginosa; details: concentration 50 μg/ml
# Procedure: as §1, §2
# [22] = tested on: Ps. aeruginosa VIM2; experiment: Agar diffusion antibiogram (Example 2); assay type: cell-based, Pseudomonas aeruginosa; details: concentration 50 μg/ml
# Procedure: as §1, §2
# [23] = tested on: Ps. aeruginosa DACB; experiment: Agar diffusion antibiogram (Example 2); assay type: cell-based, Pseudomonas aeruginosa; details: concentration 50 μg/ml
# Procedure: as §1, §2
# [24] = tested on: Ps. aeruginosa OPRD; experiment: Agar diffusion antibiogram (Example 2); assay type: cell-based, Pseudomonas aeruginosa; details: concentration 50 μg/ml
# Procedure: as §1, §2
smiles,measurement,setting,value
"CC1(C)S[C@@H]2[C@H](NC(=O)Cc3ccccc3)C(=O)N2[C@H]1C(=O)O [PG, penicillin G]",Inhibition halos,[1],<1 mm
same,Inhibition halos,[2],<1 mm
same,Inhibition halos,[3],<1 mm
same,Inhibition halos,[4],<1 mm
same,Inhibition halos,[5],<1 mm
same,Inhibition halos,[6],<1 mm
same,Inhibition halos,[7],<1 mm
same,Inhibition halos,[8],<1 mm
same,Inhibition halos,[9],<1 mm
same,Inhibition halos,[10],<1 mm
same,Inhibition halos,[11],<1 mm
same,Inhibition halos,[12],<1 mm
same,Inhibition halos,[13],<1 mm
same,Inhibition halos,[14],21 mm
same,Inhibition halos,[15],<1 mm
same,Inhibition halos,[16],21 mm
same,Inhibition halos,[17],<1 mm
same,Inhibition halos,[18],<1 mm
same,Inhibition halos,[19],<1 mm
same,Inhibition halos,[20],<1 mm
same,Inhibition halos,[21],<1 mm
same,Inhibition halos,[22],<1 mm
same,Inhibition halos,[23],9 mm
same,Inhibition halos,[24],<1 mm
